Test results: ChEMBL document CHEMBL1157355, “Recent advances on phosphodiesterase 4 inhibitors for the treatment of asthma and chronic obstructive pulmonary disease” (J Med Chem, 2008)
One block for each compound: values may come before it.

Experiments:
Blood [1] = test: Inhibition of TNFalpha release in human whole blood; type: functional, tissue-based; details: read-out: IC50
[2] = Inhibition of PDE4
[3] = Selectivity for PDE4D3 over PDE4D2
[4] = Selectivity for PDE4D3 over PDE4A
[5] = Selectivity for PDE4D5 over PDE4D2
[6] = biological target: T1, 3',5'-cyclic-AMP phosphodiesterase 4D (Homo sapiens, UniProt Q08499); test: Inhibition of PDE4D5
T1 sequence (Q08499 whole entry): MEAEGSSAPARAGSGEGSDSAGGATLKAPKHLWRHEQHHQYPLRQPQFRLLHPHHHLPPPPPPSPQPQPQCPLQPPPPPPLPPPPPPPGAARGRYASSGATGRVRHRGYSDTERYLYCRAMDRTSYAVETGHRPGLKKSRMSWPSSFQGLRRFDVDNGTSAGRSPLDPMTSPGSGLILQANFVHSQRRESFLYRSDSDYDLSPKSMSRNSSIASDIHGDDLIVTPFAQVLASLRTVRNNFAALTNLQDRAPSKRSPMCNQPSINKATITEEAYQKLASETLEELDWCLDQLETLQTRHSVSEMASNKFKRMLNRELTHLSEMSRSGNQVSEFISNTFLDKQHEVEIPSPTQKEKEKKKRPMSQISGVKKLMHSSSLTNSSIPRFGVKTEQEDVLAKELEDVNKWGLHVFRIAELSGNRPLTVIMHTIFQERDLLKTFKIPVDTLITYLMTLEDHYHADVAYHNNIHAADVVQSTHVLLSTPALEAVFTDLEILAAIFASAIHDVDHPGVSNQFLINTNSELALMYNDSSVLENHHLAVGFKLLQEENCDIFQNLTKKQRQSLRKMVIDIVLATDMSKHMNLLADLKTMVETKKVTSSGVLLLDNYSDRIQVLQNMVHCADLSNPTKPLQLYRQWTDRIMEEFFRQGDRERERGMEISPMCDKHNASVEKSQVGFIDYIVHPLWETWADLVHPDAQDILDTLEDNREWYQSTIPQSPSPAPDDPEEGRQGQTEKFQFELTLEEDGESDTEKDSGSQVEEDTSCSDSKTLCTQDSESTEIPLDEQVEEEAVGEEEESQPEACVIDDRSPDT

[7] = biological target: T1, 3',5'-cyclic-AMP phosphodiesterase 4D; test: Inhibition of PDE4D3
[8] = Selectivity for PDE4D5 over PDE4A
[9] = Selectivity for PDE4B over PDE4D2
[10] = Selectivity for PDE4B over PDE4A
[11] = biological target: 3',5'-cyclic-AMP phosphodiesterase 4B (Homo sapiens) (UniProt Q07343); test: Inhibition of PDE4B
3',5'-cyclic-AMP phosphodiesterase 4B (Homo sapiens), sequence (Q07343 whole entry): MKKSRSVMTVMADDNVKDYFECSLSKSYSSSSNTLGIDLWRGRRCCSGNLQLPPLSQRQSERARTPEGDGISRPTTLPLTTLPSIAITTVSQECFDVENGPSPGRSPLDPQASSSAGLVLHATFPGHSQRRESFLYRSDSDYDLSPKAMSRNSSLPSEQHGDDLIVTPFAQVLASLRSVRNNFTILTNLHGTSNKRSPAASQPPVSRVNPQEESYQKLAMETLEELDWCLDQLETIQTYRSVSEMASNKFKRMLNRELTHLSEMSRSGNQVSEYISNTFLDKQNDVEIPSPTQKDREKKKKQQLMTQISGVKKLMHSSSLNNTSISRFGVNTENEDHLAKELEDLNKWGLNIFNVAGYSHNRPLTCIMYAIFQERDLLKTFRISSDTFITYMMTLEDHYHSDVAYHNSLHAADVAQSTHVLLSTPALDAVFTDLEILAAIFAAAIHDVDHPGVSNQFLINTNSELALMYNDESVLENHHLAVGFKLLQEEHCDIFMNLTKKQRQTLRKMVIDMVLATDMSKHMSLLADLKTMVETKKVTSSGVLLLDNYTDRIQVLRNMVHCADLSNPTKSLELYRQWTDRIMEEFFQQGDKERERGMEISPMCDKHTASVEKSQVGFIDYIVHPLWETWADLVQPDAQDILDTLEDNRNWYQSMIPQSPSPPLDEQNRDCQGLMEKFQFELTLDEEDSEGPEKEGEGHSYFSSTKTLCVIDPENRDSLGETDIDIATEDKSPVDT

Rhesus monkey [12] = test: Reduction in neutrophil response to antigen challenge in atopic monkey at 10 mg/kg, po; type: functional, Macaca mulatta; set-up: scale not given: the % may be the effect or the level left
Rhesus monkey [13] = test: Reduction in eosinophil response to antigen challenge in atopic monkey at 10 mg/kg, po; type: functional, Macaca mulatta; set-up: scale not given: the % may be the effect or the level left
Rhesus monkey [14] = test: Reduction in IL1-beta response to antigen challenge in atopic monkey at 10 mg/kg, po; type: functional, Macaca mulatta; set-up: scale not given: the % may be the effect or the level left
Cavia porcellus [15] = test: Inhibition of aerosolized antigen-induced airway obstruction in po dosed guinea pig; type: functional
[16] = biological target: 3',5'-cyclic-AMP phosphodiesterase 4A (Homo sapiens, UniProt P27815); test: Inhibition of human PDE4A
3',5'-cyclic-AMP phosphodiesterase 4A, sequence (P27815 whole entry): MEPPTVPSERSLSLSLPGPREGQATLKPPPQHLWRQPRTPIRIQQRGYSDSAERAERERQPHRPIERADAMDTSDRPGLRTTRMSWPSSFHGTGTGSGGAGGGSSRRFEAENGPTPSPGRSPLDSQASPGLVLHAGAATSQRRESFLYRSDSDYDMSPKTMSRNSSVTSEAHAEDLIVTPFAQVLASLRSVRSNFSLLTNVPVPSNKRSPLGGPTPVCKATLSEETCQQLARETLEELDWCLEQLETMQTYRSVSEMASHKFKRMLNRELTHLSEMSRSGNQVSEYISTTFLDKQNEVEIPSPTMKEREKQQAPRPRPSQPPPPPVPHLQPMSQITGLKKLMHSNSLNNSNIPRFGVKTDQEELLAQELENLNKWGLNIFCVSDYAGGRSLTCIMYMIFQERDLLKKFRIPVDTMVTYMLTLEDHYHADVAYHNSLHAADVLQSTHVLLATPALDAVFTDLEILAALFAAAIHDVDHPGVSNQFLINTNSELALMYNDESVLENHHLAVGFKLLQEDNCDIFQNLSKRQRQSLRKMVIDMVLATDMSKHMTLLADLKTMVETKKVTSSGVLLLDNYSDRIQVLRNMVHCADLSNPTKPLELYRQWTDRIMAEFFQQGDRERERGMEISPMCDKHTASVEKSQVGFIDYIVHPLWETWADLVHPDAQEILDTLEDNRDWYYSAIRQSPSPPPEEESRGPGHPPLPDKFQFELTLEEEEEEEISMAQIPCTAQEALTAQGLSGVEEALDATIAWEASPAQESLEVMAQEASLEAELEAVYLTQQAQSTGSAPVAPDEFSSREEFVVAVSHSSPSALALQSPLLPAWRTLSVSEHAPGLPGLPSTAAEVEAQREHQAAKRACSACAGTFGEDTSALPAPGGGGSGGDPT

Blood [17] = test: Inhibition of fMLP-induced LTB4 biosynthesis in human whole blood; type: functional, tissue-based
[18] = biological target: 3',5'-cyclic-AMP phosphodiesterase 4C (Homo sapiens, UniProt Q08493); test: Inhibition of human PDE4C
3',5'-cyclic-AMP phosphodiesterase 4C, sequence (Q08493 whole entry): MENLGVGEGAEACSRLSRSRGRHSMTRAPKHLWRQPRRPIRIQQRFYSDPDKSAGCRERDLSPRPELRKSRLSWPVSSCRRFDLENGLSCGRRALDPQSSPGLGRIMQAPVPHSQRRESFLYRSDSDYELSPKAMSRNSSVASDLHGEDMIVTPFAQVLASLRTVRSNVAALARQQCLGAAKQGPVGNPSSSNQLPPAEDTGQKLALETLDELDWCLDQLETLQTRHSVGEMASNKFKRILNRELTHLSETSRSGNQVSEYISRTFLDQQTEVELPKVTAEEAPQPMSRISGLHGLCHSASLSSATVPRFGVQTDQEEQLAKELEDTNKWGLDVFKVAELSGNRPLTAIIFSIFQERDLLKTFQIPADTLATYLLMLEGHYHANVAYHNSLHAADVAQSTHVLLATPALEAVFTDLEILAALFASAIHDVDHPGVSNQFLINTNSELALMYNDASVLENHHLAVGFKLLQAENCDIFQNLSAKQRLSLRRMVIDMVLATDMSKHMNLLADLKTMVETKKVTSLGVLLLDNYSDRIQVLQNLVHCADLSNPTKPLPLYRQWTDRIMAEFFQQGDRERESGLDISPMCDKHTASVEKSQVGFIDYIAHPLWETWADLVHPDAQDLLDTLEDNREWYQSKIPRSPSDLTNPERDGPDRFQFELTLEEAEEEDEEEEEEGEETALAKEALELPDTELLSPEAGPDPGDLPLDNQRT

[19] = biological target: T1, 3',5'-cyclic-AMP phosphodiesterase 4D; test: Inhibition of human PDE4D
Blood [20] = test: Inhibition of LPS-induced TNFalpha release in human whole blood; type: functional, tissue-based
Phosphodiesterase 4 = Phosphodiesterase 4 (Homo sapiens, UniProt P27815+Q08499+Q07343+Q08493); test: Inhibition of PDE4 in human eosinophil; type: protein assay
[21] = Displacement of [3H]rolipram from PDE4 at 10 uM by RBA
Phosphodiesterase 3 = Phosphodiesterase 3 (Homo sapiens, UniProt Q14432+Q13370); test: Inhibition of PDE3 in human platelet
[22] = Inhibition of PDE4 in dog trachea; type: tissue-based, Canis lupus familiaris
Rattus norvegicus [23] = test: Inhibition of SRS-A-induced bronchoconstriction in rat at 10 mg/kg; type: functional
Rattus norvegicus [24] = test: Inhibition of TNFalpha production in po dosed rat; type: functional; details: read-out: ID50 (the source's name)
[25] = Oral bioavailability in rat; type: ADME, organism-based; details: in vivo
[26] = Displacement of [3H]rolipram from PDE4 by RBA
[27] = Oral bioavailability in guinea pig at 3 mg/kg; type: ADME, organism-based, Cavia porcellus; details: in vivo
Cavia porcellus [28] = test: Inhibition of lung eosinophila in guinea pig at 10 mg.kg, po; type: functional
[29] = Inhibition of PDE5
[30] = Inhibition of PDE3
[31] = Inhibition of PDE1
[32] = Cmax in ferret; type: ADME, organism-based, Mustela putorius furo; details: in vivo
Cavia porcellus [33] = test: Inhibition of eosinophil infiltration in guinea pig at 30 umol/kg, ip; type: functional
Rattus norvegicus [34] = test: Inhibition of TNFalpha production in rat at 10 mg/kg, po; type: functional

Selectivity ratio [3]: 20
Selectivity ratio [4]: 20
Selectivity ratio [5]: 20
Activity [6]: 6 nM
Activity [7]: 6 nM
Selectivity ratio [8]: 20
Selectivity ratio [9]: 20
Selectivity ratio [10]: 20
Activity [11]: 6 nM
Compound: COc1ccc(Cn2cnc(N)c3nc(C(C)(C)OCc4ccsc4)nc2-3)cc1OC1CCCC1

IC50 [2]: 13 nM
Compound: CCCc1nc(NC)n2ncc(Cc3ccccc3OC)c2n1

IC50 [2]: 6000 nM
RBA [21]: 14%
Compound: COc1ccc(S(=O)(=O)NC2CCc3ccccc32)cc1OC (stereo not given)

IC50 [29]: 5000 nM
IC50 [2]: 40 nM
IC50 [30]: 380000 nM
IC50 [31]: 40000 nM
Compound: CNc1nc(C(F)(F)F)nc2c1ncn2Cc1ccccc1F

IC50 [2]: 11 nM
Compound: CNc1nc(C(F)(F)F)nc2c(Cc3ccccc3OC)cnn12

IC50 (Blood [1]): 72 nM
Ki [26]: 383 nM
IC50 [2]: 241 nM
Compound: COc1ccc2c(Cc3c(Cl)cncc3Cl)nnc(-n3cncn3)c2c1
inhibition in vivo at 30 µmol/kg (Cavia porcellus [33]): 34%

IC50 [2]: 40 nM
Compound: Cc1nn(C)c2ncc(C(N)=O)c(Nc3ccccc3)c12
inhibition in vivo at 10 mg/kg (Rattus norvegicus [34]): 48%

Further lines, the compound ahead of its results:

Compound: O=C1CCC(N2C(=O)c3ccccc3C2=O)C(=O)N1 (stereo not given) [THALIDOMIDE]
IC50 (Blood [1]): 200000 nM

Compound: COc1ccc(C(CC(N)=O)N2C(=O)c3ccccc3C2=O)cc1OC1CCCC1 (stereo not given) [CDC-801]
IC50 (Blood [1]): 2500 nM
IC50 [2]: 1100 nM

Compound: COCc1cc2c(C(=O)Nc3c(Cl)cncc3Cl)ccc(OC)c2o1
IC50 [2]: 0.4 nM

Compound: Cc1noc(/C(=C/c2cccc(-c3cc(C(C)(C)S(C)(=O)=O)cc4cccnc34)c2)c2ccc(S(C)(=O)=O)cc2)n1
IC50 [2]: 3 nM

Compound: CCc1nn(C2CCCC2)c2c1CCN(c1ccccc1C)C2=O
Activity (Rhesus monkey [12]): 65%
Activity (Rhesus monkey [13]): 55%
Activity (Rhesus monkey [14]): 82%
ED50 (Cavia porcellus [15]): 2 mg/kg

Compound: CC(C)C(=O)c1c(C(C)C)nn2ccccc12 [IBUDILAST]
IC50 [16]: 54 nM
IC50 (Blood [17]): 2500 nM
IC50 [18]: 239 nM
IC50 [19]: 166 nM
IC50 (Blood [20]): 6200 nM

Compound: CCc1nn(-c2ccc(F)cc2)c2c1CCN(c1ccccc1)C2=O
IC50 (Phosphodiesterase 4): 30 nM

Compound: COc1cc2c3c(c1)C(c1ccccc1)=N[C@@H](NC(=O)c1cccnc1)C(=O)N3CC2
IC50 [2]: 4300 nM

Compound: COc1cc(-c2ccc(=O)[nH]n2)ccc1OC(F)F [ZARDAVERINE]
pIC50 (Phosphodiesterase 3): 6.24
pIC50 [22]: 6.8

Compound: COC(=O)N1CC[C@H](Oc2cccc(Nc3c(C(N)=O)cnc4c3c(C)nn4C)c2)C1
inhibition in vivo at 10 mg/kg (Rattus norvegicus [23]): 50%
ED50 (Rattus norvegicus [24]): 1 mg/kg
IC50 [2]: 10 nM
bioavailability [25]: 33%

Compound: COCc1cc2c(C(=O)Nc3c(Cl)cncc3Cl)cnc(OC)c2o1
IC50 [26]: 84 nM
IC50 [2]: 14 nM
bioavailability [27]: 54%
inhibition (INH) (Cavia porcellus [28]): 40%

Compound: COc1ccc(C(=O)Nc2c(Cl)c[n+]([O-])cc2Cl)c2ccc(C(F)(F)F)nc12 [SCH-351591]
IC50 [26]: 150 nM
IC50 [2]: 60 nM

Compound: Cc1ccccc1-n1c(=O)n(Cc2cccs2)c(=O)c2[nH]cnc21
Ki [26]: 1020 nM
IC50 [2]: 4200 nM

Compound: COc1cccc(-c2cc(Cc3ccncc3)cc3cccnc23)c1
IC50 (Blood [1]): 8300 nM
Cmax [32]: 200 nM
